Test results taken from PubChem BioAssay (NCI).
Values joined by “and” are separate entries in the source; they are usually repeats but may differ in a detail not shown here. Equal values may be shown once.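 Briefly, cells in 96-well plates were exposed to five compound concentrations for 48 h, and endpoints were estimated by linear interpolation. GI50 marks 50% less growth. TGI denotes the concentration required for complete inhibition of growth.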

Key:
Assay in all cases: growth of human tumour cells (NCI), 48 h
[1] = system: BT-549 breast
[2] = system: T-47D breast
[3] = system: NCI/ADR-RES ovarian
[4] = system: HS 578T breast
[5] = system: SF-268 CNS
[6] = system: UO-31 renal
[7] = system: SW-620 colon
[8] = system: A549 NSCLC

With `O=S(=O)(NCCCNc1cc(-c2cn(-c3ccccc3)nc2-c2cccc(O)c2)ccn1)c1ccc(Br)cc1` the GI50 [1] was 1.68 µM, the TGI [1] was 4.32 µM and the GI50 [2] was 1.76 µM. For the same molecule, the TGI [2] was 6.38 µM, the GI50 [3] was 2.33 µM and the TGI [3] was 8.19 µM. The GI50 [4] was 1.16 µM, the TGI [4] was 4.82 µM and the GI50 [5] was 1.45 µM. For the same molecule, the TGI [5] was 4.98 µM, the GI50 [6] was 2.17 µM and the TGI [6] was 8.95 µM. It also gave a GI50 [7] of 1.62 µM, a TGI [7] of 3.65 µM and a GI50 [8] of 2.6 µM. It also gave a TGI [8] of 12.6 µM.

`Oc1ccccc1/C=N\NC(=S)N/N=C/c1ccccc1O` was tested, and the GI50 [1] was 13.9 µM, the TGI [1] was greater than 100 µM and the GI50 [2] was 3.19 µM. The TGI [2] was 54.5 µM, the GI50 [3] was 0.543 µM and the TGI [3] was greater than 100 µM. The GI50 [4] was 10.7 µM, the TGI [4] was 69.6 µM and the GI50 [5] was 1.08 µM. It also gave a TGI [5] of 44.1 µM, a GI50 [6] of 0.489 µM and a TGI [6] of 4.91 µM. It also gave a GI50 [7] of 3.54 µM, a TGI [7] greater than 100 µM and a GI50 [8] of 3.5 µM. For the same molecule, the TGI [8] was greater than 100 µM.

With `COc1ccc2c(c1)C(c1cc(OC)c3c(c1)OCO3)C1=C(COC1=O)N2` (configuration not stated) the GI50 [1] was 2.08 µM, the TGI [1] was greater than 100 µM and the GI50 [2] was 6.67 µM. For the same molecule, the TGI [2] was greater than 100 µM, the GI50 [3] was 0.292 µM and the GI50 [4] was 0.214 µM. The TGI [4] was greater than 79.4 µM, the GI50 [5] was 0.691 µM and the TGI [5] was greater than 89.2 µM. For the same molecule, the GI50 [6] was 5.05 µM, the TGI [6] was greater than 100 µM and the GI50 [7] was 0.373 µM. It also gave a TGI [7] greater than 100 µM, a GI50 [8] of 0.445 µM and a TGI [8] greater than 100 µM.

With `CN(C)Cc1c(C(=O)NCCOc2ccc(C(=O)NO)cc2)oc2ccccc12` the GI50 [1] was 0.519 µM, the TGI [1] was 13.8 µM and the GI50 [2] was 0.163 µM. The TGI [2] was 0.777 µM, the GI50 [3] was 0.306 µM and the TGI [3] was 4.27 µM. The GI50 [4] was 0.158 µM, the TGI [4] was 0.851 µM and the GI50 [5] was 0.464 µM. It also gave a TGI [5] of 6.02 µM, a GI50 [6] of 0.296 µM and a TGI [6] of 2.66 µM. It also gave a GI50 [7] of 0.166 µM, a TGI [7] of 0.547 µM and a GI50 [8] of 0.299 µM. The TGI [8] was 1.98 µM.

`O=[N+]([O-])c1oc2ccc3ccccc3c2c1CCO` gave a TGI [1] of 8.71 µM, a TGI [2] of 73.3 µM and a TGI [3] of 30.1 µM. It also gave a TGI [4] of 27.7 µM, a TGI [5] of 40.5 µM and a TGI [6] of 3.89 µM. For the same molecule, the TGI [7] was 40.2 µM and the TGI [8] was 7.29 µM.

In the case of `O=C(O)Cc1ccc(N=Nc2c(O)c(C(=O)O)cc3ccccc23)cc1`, the TGI [1] is reported as greater than 100 µM, the TGI [2] is reported as greater than 100 µM and the TGI [3] is reported as greater than 100 µM. It also gave a TGI [4] greater than 100 µM, a TGI [5] greater than 100 µM and a TGI [6] greater than 100 µM. The TGI [7] was greater than 100 µM and the TGI [8] was greater than 100 µM.

`COc1ccc(-c2cn(-c3cc(OC)c(OC)c(OC)c3)c(=O)[nH]2)cc1OC` showed a GI50 [1] greater than 100 µM, a TGI [1] greater than 100 µM and a GI50 [2] greater than 100 µM. The TGI [2] was greater than 100 µM, the GI50 [3] was greater than 100 µM and the TGI [3] was greater than 100 µM. For the same molecule, the GI50 [4] was 20.2 µM, the TGI [4] was greater than 100 µM and the GI50 [5] was greater than 100 µM. The TGI [5] was greater than 100 µM, the GI50 [6] was greater than 100 µM and the TGI [6] was greater than 100 µM. For the same molecule, the GI50 [7] was greater than 100 µM, the TGI [7] was greater than 100 µM and the GI50 [8] was greater than 100 µM. For the same molecule, the TGI [8] was greater than 100 µM.

With `Cc1ccsc1-c1ccc2c(c1)COC2(CCCN(C)C)c1ccc(F)cc1` (configuration not stated) the GI50 [1] was 4.97 µM, the TGI [1] was 18.6 µM and the GI50 [2] was 2.15 µM. For the same molecule, the TGI [2] was 6.92 µM, the GI50 [3] was 3.83 µM and the TGI [3] was 15.2 µM. It also gave a GI50 [4] of 2.39 µM, a TGI [4] of 9.07 µM and a GI50 [5] of 4.28 µM. It also gave a TGI [5] of 17.1 µM, a GI50 [6] of 1.7 µM and a TGI [6] of 6.26 µM. It also gave a GI50 [7] of 1.78 µM, a TGI [7] of 3.75 µM and a GI50 [8] of 4.48 µM. It also gave a TGI [8] of 18.1 µM.

`CNC(=O)c1cccc(C#Cc2cncnc2Nc2ccc(OCc3cccc(F)c3)c(Cl)c2)c1` was tested, and the GI50 [1] was 8.56 µM, the TGI [1] was greater than 25 µM and the GI50 [2] was 3.18 µM. It also gave a TGI [2] of 15.7 µM, a GI50 [3] of 6.94 µM and a TGI [3] greater than 25 µM. For the same molecule, the GI50 [4] was 7.47 µM, the TGI [4] was greater than 25 µM and the GI50 [5] was 4.54 µM. The TGI [5] was 12.9 µM, the GI50 [6] was 1.58 µM and the TGI [6] was greater than 25 µM. The GI50 [7] was 7.16 µM, the TGI [7] was greater than 25 µM and the GI50 [8] was 3.85 µM. The TGI [8] was 8.9 µM.

In the case of `OCC1CCCC1O` (configuration not stated), the TGI [1] is reported as greater than 100 µM, the TGI [2] is reported as greater than 100 µM and the TGI [3] is reported as greater than 100 µM. The TGI [5] was greater than 100 µM, the TGI [6] was greater than 100 µM and the TGI [7] was greater than 100 µM. It also gave a TGI [8] greater than 100 µM.

`CCNCCNc1cc(-c2ccc(C(F)(F)F)cc2)c(C#N)c2nc3cc(Cl)c(Cl)cc3n12` gave a GI50 [2] of 1.94 µM, a TGI [2] of 3.78 µM and a GI50 [3] of 1.49 µM. The TGI [3] was 3.33 µM, the GI50 [4] was 1.81 µM and the TGI [4] was 3.91 µM. For the same molecule, the GI50 [5] was 1.6 µM, the TGI [5] was 3.22 µM and the GI50 [6] was 1.65 µM. It also gave a TGI [6] of 3.25 µM, a GI50 [7] of 0.306 µM and a TGI [7] of 1.14 µM. It also gave a GI50 [8] of 1.37 µM and a TGI [8] of 2.77 µM.

Molecule `Cc1c2c(nn1-c1ccc(S(=O)(=O)NC(=S)NC(=O)c3ccccc3)cc1)-c1ccccc1CC2` has a GI50 [2] of 44.9 µM, a TGI [2] greater than 100 µM and a GI50 [3] greater than 100 µM. The TGI [3] was greater than 100 µM, the GI50 [5] was 29.3 µM and the TGI [5] was greater than 100 µM. It also gave a GI50 [6] greater than 100 µM, a TGI [6] greater than 100 µM and a GI50 [7] greater than 100 µM. It also gave a TGI [7] greater than 100 µM, a GI50 [8] of 54.1 µM and a TGI [8] greater than 100 µM.

In the case of `COC(=O)[C@@H](C)C[C@H](Cc1ccccc1)NC(=O)c1csc([C@@H](C[C@H](C(C)C)N(C)C(=O)[C@@H](NC(=O)[C@H]2CCCN2C)C2CC2)OC(C)=O)n1`, the GI50 [1] is reported as 0.000664 µM and < 0.0025 µM, the GI50 [3] is reported as 0.276 µM and 0.262 µM and the TGI [3] is reported as greater than 25 µM. For the same molecule, the GI50 [4] was 0.00186 µM, the GI50 [5] was 0.00871 µM and 0.0025 µM and the TGI [5] was greater than 25 µM. For the same molecule, the TGI [6] was greater than 25 µM, the GI50 [7] was 0.000508 µM and 0.0025 µM and the TGI [7] was greater than 25 µM. For the same molecule, the GI50 [8] was 0.00664 µM and 0.0025 µM and the TGI [8] was greater than 25 µM.

For `COc1ccc2nc3cccc([N+](=O)[O-])c3c(NC(C)CN(C)C)c2c1` (configuration not stated), the GI50 [1] was 2.86 µM, the TGI [1] was 6.74 µM and the GI50 [2] was 5.52 µM. For the same molecule, the TGI [2] was 36 µM, the GI50 [3] was 2.92 µM and the TGI [3] was 13 µM. It also gave a GI50 [5] of 2.64 µM, a TGI [5] of 11.9 µM and a GI50 [6] of 1.7 µM. The TGI [6] was 3.62 µM, the GI50 [7] was 1.9 µM and the TGI [7] was 12.5 µM. It also gave a GI50 [8] of 3.48 µM and a TGI [8] of 8.93 µM.

In the case of `CCCCCCCCCCCCCCCCN(CC)CC`, the GI50 [1] is reported as 1.87 µM, the TGI [1] is reported as 3.89 µM and the GI50 [2] is reported as 3.39 µM. It also gave a TGI [2] of 17 µM, a GI50 [4] of 3.47 µM and a TGI [4] of 15.8 µM. For the same molecule, the GI50 [5] was 2.64 µM, the TGI [5] was 8.31 µM and the GI50 [6] was 1.6 µM. For the same molecule, the TGI [6] was 3.47 µM, the GI50 [7] was 2.03 µM and the TGI [7] was 3.9 µM.

Work on `O=C1c2cc(F)ccc2-c2c1c1ccc([N+](=O)[O-])cc1c(=O)n2CCCBr` yielded a GI50 [2] of 7.53 µM, a TGI [2] greater than 100 µM and a GI50 [3] of 4.37 µM. The TGI [3] was 41.3 µM, the GI50 [4] was greater than 100 µM and the TGI [4] was greater than 100 µM. For the same molecule, the GI50 [5] was 8.56 µM, the TGI [5] was greater than 100 µM and the GI50 [6] was 13.9 µM. It also gave a TGI [6] greater than 100 µM, a GI50 [7] of 10.2 µM and a TGI [7] greater than 100 µM. It also gave a GI50 [8] of 25.7 µM and a TGI [8] greater than 100 µM.

Work on `CN1C(=O)C2(c3ccccc31)C1CC3C(CO1)C1C2C3(CO)CN1C#N` (configuration not stated) yielded a TGI [1] greater than 100 µM, a TGI [2] greater than 100 µM and a TGI [3] greater than 100 µM. The TGI [4] was greater than 100 µM, the TGI [5] was greater than 100 µM and the TGI [6] was greater than 100 µM. The TGI [8] was greater than 100 µM.

In the case of `COc1cccc(C2SCc3nc4ccccc4n32)c1` (configuration not stated), the TGI [5] is reported as greater than 100 µM, the TGI [6] is reported as 95.7 µM and the TGI [7] is reported as greater than 100 µM. The TGI [8] was greater than 100 µM.
